Source: US7553861B2, “Dipeptidyl peptidase-IV inhibitors” (Alantos Pharmaceuticals Holding, Inc., priority 2005, dated 2009)
pKi: −log10 of the molar value.

Molecular target: T1, DPP-IV (Homo sapiens, UniProt P27487)
T1 construct: purchased R&D Systems GmbH, Germany
Experiment: Assay for determining DP-IV inhibition (fluorometric, Gly-Pro-AMC substrate)
Format: biochemical
Conditions: Inhibition of DPP-IV, K(i) calculated from IC(50) with IC(50)=K(i)(1+[S]/Km), pH 8.0
Method: The inhibitory activity of compounds against DPP-IV can be determined by in vitro assay systems, which are themselves well established in the art. The assay results given in Table 5 were obtained according to the following method, employing a modified version of the assay described by Leiting et al., in an article entitled “Catalytic properties and inhibition of proline-specific dipeptidyl peptidases II, IV and VII” in Biochem. J. Vol. 371, pages 525-532 (2003):
DPP-IV activity was determined fluorometrically with Gly-Pro-AMC (where AMC stands for 7-amido-4-methylcoumarin, Bachem AG, Switzerland) as substrate. The reaction mixture contained 10 μl of 1 ng/μl DPP-IV (R&D Systems GmbH, Germany) and 80 μl of 25 mM Tris/HCl buffer, pH 8.0. Compounds were supplied as DMSO stock solutions and diluted in assay buffer to a maximal DMSO concentration of 1% in the assay. Prior to start of the reaction, the mixture was incubated for 30 min at room temperature. The reaction was started by addition of 10 μl of 100 μM substrate solution.
The fluorescence intensity was measured at excitation and emission wavelengths of 355 and 460 nm, respectively, in a FluoStar Galaxy Multiwell Plate (BMG Labtech, Germany). Fluorescence was determined 3 and 4 minutes after start of reaction and increase in fluorescence was used for determination of enzymatic activity. IC(50) values of tested compounds were determined via plotting enzymatic activity versus concentration of test compound and determining the concentration of test compound which yields a 50% inhibition of enzymatic activity.
K(i) values were calculated using the Michaelis-Menten equation for competitive inhibition: IC(50)=K(i)(1+[S]/Km)

T1 sequence (P27487 whole entry): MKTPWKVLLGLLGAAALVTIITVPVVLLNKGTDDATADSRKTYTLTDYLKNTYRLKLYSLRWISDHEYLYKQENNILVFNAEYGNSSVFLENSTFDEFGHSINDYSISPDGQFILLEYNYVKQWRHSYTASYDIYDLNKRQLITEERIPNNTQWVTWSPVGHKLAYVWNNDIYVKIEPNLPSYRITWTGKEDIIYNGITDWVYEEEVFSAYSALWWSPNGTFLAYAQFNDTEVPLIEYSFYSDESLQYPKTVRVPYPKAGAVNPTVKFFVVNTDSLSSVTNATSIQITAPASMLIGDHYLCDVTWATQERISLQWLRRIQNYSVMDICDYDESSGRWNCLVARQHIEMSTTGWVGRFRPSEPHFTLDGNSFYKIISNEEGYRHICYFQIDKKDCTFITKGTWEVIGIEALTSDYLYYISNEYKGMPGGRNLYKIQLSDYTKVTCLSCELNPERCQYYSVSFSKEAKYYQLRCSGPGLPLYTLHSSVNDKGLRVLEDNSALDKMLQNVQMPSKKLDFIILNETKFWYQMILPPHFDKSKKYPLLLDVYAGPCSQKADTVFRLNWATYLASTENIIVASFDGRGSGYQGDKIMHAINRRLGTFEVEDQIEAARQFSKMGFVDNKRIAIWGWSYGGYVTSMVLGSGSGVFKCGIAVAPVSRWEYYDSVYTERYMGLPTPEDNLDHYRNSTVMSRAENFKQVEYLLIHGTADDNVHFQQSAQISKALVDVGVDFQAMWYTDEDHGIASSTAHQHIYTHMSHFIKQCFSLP

SMILES | pKi
C[C@@H](CC1(c2nn[nH]n2)c2ccc(C(=O)N3CCOCC3)cc2CCc2cc(C(=O)N3CCOCC3)ccc21)NCC(=O)N1CCC[C@H]1C#N [Example 33] | > 8.22
N#C[C@@H]1CCCN1C(=O)CNCCC1(c2nn[nH]n2)c2ccc(C(N)=O)cc2CCc2cc(C(N)=O)ccc21 [Example 34] | > 8.22
CNC(=O)c1ccc2c(c1)CCc1cc(C(=O)NC)ccc1C2(CCNCC(=O)N1CCC[C@H]1C#N)c1nn[nH]n1 [Example 35] | > 8.22
CN(C)C(=O)c1ccc2c(c1)CCc1cc(C(=O)N(C)C)ccc1C2(CCNCC(=O)N1CCC[C@H]1C#N)c1nn[nH]n1 [Example 36] | 7.30 to 8.22
C[C@@H](CC1(C(N)=O)c2ccc(C(=O)N(C)C)cc2CCc2cc(C(=O)N(C)C)ccc21)NCC(=O)N1CCC[C@H]1C#N [Example 39] | 7.30 to 8.22
C[C@@H](CC1(c2noc(C(F)(F)F)n2)c2ccc(C(=O)N(C)C)cc2CCc2cc(C(=O)N(C)C)ccc21)NCC(=O)N1CCC[C@H]1C#N [Example 40] | 4.52 to 6.30
COC(=O)c1ccc2c(c1)CCc1cc(C(=O)OC)ccc1C2(C[C@H](C)NCC(=O)N1CCC[C@H]1C#N)c1nn[nH]n1 [Example 43] | > 8.22
C[C@@H](CC1(c2nn[nH]n2)c2ccc(C(=O)O)cc2CCc2cc(C(=O)O)ccc21)NCC(=O)N1CCC[C@H]1C#N [Example 44] | > 8.22
N#C[C@@H]1CCCN1C(=O)CNCCC1(c2nn[nH]n2)c2cc(F)ccc2CCc2ccc(C(N)=O)cc21 (stereo partly drawn) [Example 45] | 7.30 to 8.22
CN1C(=O)c2ccccc2C(CCNCC(=O)N2CCC[C@H]2C#N)(c2nn[nH]n2)c2ccccc21 (stereo partly drawn) [Example 46] | 4.52 to 6.30
N#C[C@@H]1C[C@@H]2C[C@@H]2N1C(=O)CNCCC1(c2nn[nH]n2)c2ccc(C(N)=O)cc2CCc2cc(C(N)=O)ccc21 [Example 47] | > 8.22
N#C[C@@H]1CCCN1C(=O)[C@@H](N)CN1C[C@@H]2C[C@H]1C(=O)N2Cc1cccc(F)c1 [Example 48] | > 8.22
N#C[C@@H]1CCCN1C(=O)[C@@H](N)CN1C[C@@H]2C[C@H]1C(=O)N2Cc1c(Cl)cccc1Cl [Example 49] | > 8.22
C[C@@H](c1ccc(F)cc1)N1C(=O)[C@@H]2CC1CN2C[C@H](N)C(=O)N1CCSC1 [Example 50] | 7.30 to 8.22
N#C[C@@H]1CCCN1C(=O)[C@@H](N)CN1CC2C[C@H]1C(=O)N2Cc1cc(F)cc(F)c1 [Example 51] | > 8.22
N#C[C@@H]1C[C@@H]2C[C@@H]2N1C(=O)[C@@H](N)CN1CC2C[C@H]1C(=O)N2Cc1cc(F)cc(F)c1 [Example 52] | > 8.22
N#Cc1cccc(CN2C(=O)[C@@H]3CC2CN3C[C@H](N)C(=O)N2CCC[C@H]2C#N)c1 [Example 53] | > 8.22
N#Cc1cccc(CN2C(=O)[C@@H]3CC2CN3C[C@H](N)C(=O)N2[C@H](C#N)C[C@@H]3C[C@@H]32)c1 [Example 54] | > 8.22
N#Cc1ccc(CN2C(=O)[C@@H]3CC2CN3C[C@H](N)C(=O)N2CCC[C@H]2C#N)cc1 [Example 55] | > 8.22
C[C@H](c1ccc(F)cc1)N1C(=O)[C@@H]2CC1CN2C[C@H](N)C(=O)N1CCC[C@H]1C#N [Example 56] | > 8.22
C[C@@H](c1ccc(F)cc1)N1C(=O)[C@@H]2CC1CN2C[C@H](N)C(=O)N1CCC[C@H]1C#N [Example 57] | > 8.22

SMILES | pKi
C[C@@H](c1ccc(F)cc1)N1C(=O)[C@@H]2CC1CN2C[C@H](N)C(=O)N1[C@H](C#N)C[C@@H]2C[C@@H]21 [Example 58] | > 8.22
CC(C)(c1ccc(F)cc1)N1C(=O)[C@@H]2CC1CN2C[C@H](N)C(=O)N1CCC[C@H]1C#N [Example 59] | > 8.22
N#C[C@@H]1CCCN1C(=O)[C@@H](N)CN1CC2C[C@H]1C(=O)N2Cc1cccc(C(N)=O)c1 [Example 60] | > 8.22
N#C[C@@H]1CCCN1C(=O)[C@@H](N)CN1CC2C[C@H]1C(=O)N2Cc1ccc(C(N)=O)cc1 [Example 61] | > 8.22
CC(C)(c1ccc(F)cc1)N1C(=O)[C@@H]2CC1CN2C[C@H](N)C(=O)N1[C@H](C#N)C[C@@H]2C[C@@H]21 [Example 62] | > 8.22
N#C[C@@H]1CCCN1C(=O)[C@@H]1C[C@H](N2C[C@@H]3C[C@H]2C(=O)N3Cc2cccc(F)c2)CN1 [Example 63] | > 8.22
N#C[C@@H]1C[C@@H]2C[C@@H]2N1C(=O)[C@@H](N)CN1C[C@@H]2C[C@H]1C(=O)N2Cc1cccc(F)c1 [Example 64] | > 8.22
N#C[C@@H]1CCCN1C(=O)[C@@H](N)CN1C(=O)[C@@H]2C[C@H]1CN2S(=O)(=O)c1cccc(F)c1 [Example 65] | 7.30 to 8.22
N#C[C@@H]1CCCN1C(=O)[C@@H](N)CN1C(=O)[C@@H]2C[C@H]1CN2S(=O)(=O)c1cccs1 [Example 66] | 7.30 to 8.22
N#C[C@@H]1CCCN1C(=O)[C@@H](N)CN1C(=O)[C@@H]2C[C@H]1CN2S(=O)(=O)c1ccsc1 [Example 67] | > 8.22
COC(=O)c1sccc1S(=O)(=O)N1C[C@@H]2C[C@H]1C(=O)N2C[C@H](N)C(=O)N1CCC[C@H]1C#N [Example 68] | 7.30 to 8.22
N#C[C@@H]1CCCN1C(=O)[C@@H](N)CN1C(=O)[C@@H]2C[C@H]1CN2C(=O)c1cccs1 [Example 69] | 7.30 to 8.22
N#C[C@@H]1CCCN1C(=O)[C@@H](N)CN1C(=O)[C@@H]2C[C@H]1CN2C(=O)Cc1cccs1 [Example 70] | 7.30 to 8.22
N#C[C@@H]1CCCN1C(=O)[C@@H](N)CN1C(=O)[C@@H]2C[C@H]1CN2C(=O)c1cnccn1 [Example 71] | 7.30 to 8.22
N#C[C@@H]1CCCN1C(=O)[C@@H](N)CN1C(=O)[C@@H]2C[C@H]1CN2C(=O)CC1c2ccccc2C=Cc2ccccc21 [Example 72] | > 8.22
N#C[C@@H]1CCCN1C(=O)[C@@H](N)CN1C(=O)[C@@H]2C[C@H]1CN2C(=O)OCC1c2ccccc2-c2ccccc21 [Example 73] | 7.30 to 8.22
Cc1ccc(S(=O)(=O)NC(=O)N2C[C@@H]3C[C@H]2C(=O)N3C[C@H](N)C(=O)N2CCC[C@H]2C#N)cc1 [Example 74] | 6.30 to 7.29
CC(C)(C)NC(=O)N1C[C@@H]2C[C@H]1C(=O)N2C[C@H](N)C(=O)N1CCC[C@H]1C#N [Example 75] | 6.30 to 7.29
N#C[C@@H]1CCCN1C(=O)[C@@H](N)CN1C[C@@H]2C[C@H]1CN2C(=O)Cc1cccs1 [Example 76] | 7.30 to 8.22
N#C[C@@H]1CCCN1C(=O)[C@@H](N)CN1C[C@@H]2C[C@H]1CN2S(=O)(=O)c1cccc(F)c1 [Example 77] | > 8.22
N#C[C@@H]1CCCN1C(=O)[C@@H](N)CN1C[C@@H]2C[C@H]1CN2c1cccc(F)c1 [Example 78] | 7.30 to 8.22
